Like-named read-outs stand apart in the source and are kept apart here.
Tests used:
Assay in all cases: Senolytic drug screen, CellTiter-Glo viability
Format in all cases: cell-based, human
GBM76 = details: for IC50: Homo sapiens
Description: (§1) Human patient-derived glioblastoma lines were utilized and were cultured according to established protocols. Tumor lines maintained as patient-derived xenografts (PDX) are from the National PDX resource. Such lines are designated as “GBM-6, 10, 12, 39, 76, 123, 164, or 196”. Implantation of patient-derived glioblastoma cells, serial passage of flank tumor xenografts, and short-term explant culturing were done as described elsewhere, with some lines maintained in serum-containing media, and some lines maintained in serum free media as noted in Table 2 (see, for example, Carlson et al., Current protocols in pharmacology. Chapter 14(14):Unit 14.16 (2011)). Some cell lines were maintained from time of harvest as in vitro cell lines rather than PDX lines, as described elsewhere (see, for example, Himes et al., Neuro-oncology. 22(7):967-978 (2020)). Such lines are designated as dBT114, dBT116, dBT120, dBT132 (dBT=differentiated brain tumor). Culture conditions were unchanged after induction of senescence.
(§2) After plating, cells were maintained in 10 cm culture dishes for 2-4 days until >50% confluent. Cells were then treated with TMZ for 7 days or radiation (cesium gamma radiator) with varying doses. Most experiments were performed after use of 15 Gy to induce senescence. Radiation and TMZ each caused death of a variable percentage of cells in the ensuing days. “Senescent” tumor cells used for experiments are designated by those that survive following TMZ or radiation treatments. Except for radiation doses of 4 Gy or below, no visible proliferation occurred within 1 month after treatment with TMZ or radiation. For initial screening of senolytic drugs, cells were maintained for at least 20 days after radiation or TMZ prior to re-plating cells into black walled optical 96-well plates (5000 cells/well) for doing drug treatment.
(§3) Human glioblastoma cells were exposed to 10, 15 or 20 Gy radiation as indicated above. All GBM lines tested (Table 2) yielded a subpopulation of surviving non-proliferative cells used for subsequent experiments, with the exception of GM43 which yielded insufficient surviving cells for senescence experiments. All senolytic drugs used in this study were dissolved in DMSO (Table 1). Control (0 nM) cells were treated with the same dose of DMSO as cells with the highest drug concentration. Unless specified otherwise, cells were maintained in drug-containing media for four days prior to evaluation of cell viability using ATP lite, CellTiter-Glo assay according to company protocol (Cat #G7570). For all experiments, luminescence values are normalized to the 0 nM control for that cell line and radiation dose. All dose response graphs are depicted standard error of the mean (SEM) of 3 technical replicates at each concentration. Representative data are shown for experiments performed in independent replicates.
(§4) Multiple linear regressions were used to assess the relationship of drug dose and treatment (e.g. control, radiation, TMZ) with cell inhibition within each cell line. For these models, cell inhibition was the outcome and drug dose, treatment, and the drug dose by treatment interaction were the independent predictors. If the drug dose by treatment interaction was significant (p<0.05), pairwise comparisons were made at each drug dose between treatment groups using a two-sample t-test. Statistical analysis was performed in Microsoft Excel. IC50 was calculated by nonlinear regression (Curve fit) of dose-response inhibition curve by using GraphPad prism 8.4.2.

dBT114 = dBT114 (P11); for IC50: Homo sapiens, read-out: IC50 of A1331852
Description: as §1, §2, §3, §4

GBM39 = details: for IC50: Homo sapiens
Description: as §1, §2, §3, §4

dBT116 = dBT116 (P8); for IC50: Homo sapiens, read-out: IC50 of A1331852
Description: as §1, §2, §3, §4

GBM196 = GBM196 (P2); for IC50: Homo sapiens, read-out: IC50 of A1331852
Description: as §1, §2, §3, §4

GBM6 = GBM6 (P4); for IC50: Homo sapiens, read-out: IC50 of A1331852
Description: as §1, §2, §3, §4

GBM12 = GBM12 (P3); for IC50: Homo sapiens, read-out: IC50 of A1331852
Description: as §1, §2, §3, §4

dBT120 = dBT120 (P10); for IC50: Homo sapiens, read-out: IC50 of A1331852
Description: as §1, §2, §3, §4

GBM164 = GBM164 (P2); for IC50: Homo sapiens, read-out: IC50 of A1331852
Description: as §1, §2, §3, §4

GBM10 = GBM10 (P2); for IC50: Homo sapiens, read-out: IC50 of A1331852
Description: as §1, §2, §3, §4

dBT132 = dBT132 (P10); for IC50: Homo sapiens, read-out: IC50 of A1331852
Description: as §1, §2, §3, §4

GBM123 = GBM123 (P3); for IC50: Homo sapiens, read-out: IC50 of A1331852
Description: as §1, §2, §3, §4

Compound: Cc1c(-c2ccc(N3CCc4cccc(C(=O)Nc5nc6ccccc6s5)c4C3)nc2C(=O)O)cnn1CC12CC3CC(CC(C3)C1)C2 [A1331852]
- Relative sensitivity (RS) (GBM76; GBM76 (P2), control vs 10Gy): 31.77 ± 23.61
- Relative sensitivity (RS) (GBM76; GBM76 (P2), control vs 15Gy): 20.64 ± 5.633
- Relative sensitivity (RS) (GBM76; GBM76 (P2), control vs 20Gy): 34.24 ± 7.988
- Relative sensitivity (RS) (GBM76; GBM76 (P3), control vs TMZ): 28.21
- IC50 in radiated vs non-radiated cells (GBM76; GBM76, 10, 15, 20 Gy vs non-radiated control, 4 days drug): lower IC50 radiated cells
- IC50 (GBM76; read-out: IC50 of A1331852, 10Gy, GBM76 (P2), 10Gy radiated): 1000 ± 367 nM
- IC50 (GBM76; read-out: IC50 of A1331852, 15Gy, GBM76 (P2), 15Gy radiated): 1230 ± 416 nM
- IC50 (GBM76; read-out: IC50 of A1331852, 20Gy, GBM76 (P2), 20Gy radiated): 679 ± 49.2 nM
- IC50 (GBM76; read-out: IC50 of A1331852, Control, GBM76 (P2), non-radiated control): 23500 ± 6760 nM
- IC50 (GBM76; read-out: IC50 of A1331852, Control, GBM76 (P3), control of TMZ series): 1680 nM
- IC50 (GBM76; read-out: IC50 of A1331852, TMZ, GBM76 (P3), TMZ treated): 59.7 nM
- IC50 (dBT114; 15Gy radiated): 338 ± 72 nM
- IC50 (dBT114; non-radiated control): 6320 ± 1090 nM
- Relative sensitivity (RS) (dBT114; control vs 15Gy): 20.28 ± 7.55
- Relative sensitivity (RS) (GBM39; GBM39 (P2-3), control vs 15Gy): 513.8149 ± 711.64
- Relative sensitivity (RS) (GBM39; GBM39 (P2-3), control vs TMZ): 41.02 ± 2.182
- Relative sensitivity (RS) (GBM39; GBM39 (P3), control vs 20Gy): 16.66 ± 11.88
- IC50 in radiated vs non-radiated cells (GBM39; GBM39, 15 Gy vs 0 Gy, 21 days after radiation, 4 days drug, p<0.0001): lower IC50 in radiated cells
- IC50 (GBM39; GBM39, read-out: IC50 of A1331852, 15Gy, GBM39 (P2-3), 15Gy radiated): 80.5 ± 93 nM
- IC50 (GBM39; GBM39, read-out: IC50 of A1331852, 20Gy, GBM39 (P3), 20Gy radiated): 71 ± 10.3 nM
- IC50 (GBM39; GBM39, read-out: IC50 of A1331852, Control, GBM39 (P2-3), control of 15Gy series): 108000 ± 152000 nM
- IC50 (GBM39; GBM39, read-out: IC50 of A1331852, Control, GBM39 (P2-3), control of TMZ series): 1720 ± 2180 nM
- IC50 (GBM39; GBM39, read-out: IC50 of A1331852, Control, GBM39 (P3), control of 20Gy series): 1300 ± 1010 nM
- IC50 (dBT116; 20Gy radiated): 63.5 nM
- IC50 (dBT116; non-radiated control): 290 nM
- Relative sensitivity (RS) (dBT116; control vs 20Gy): 4.566
- Relative sensitivity (RS) (GBM196; control vs 15Gy): 10.72
- IC50 (GBM196; 15Gy radiated): 2550 nM
- IC50 (GBM196; non-radiated control): 27300 nM
- Relative sensitivity (RS) (GBM6; control vs 10Gy): 26.58
- Relative sensitivity (RS) (GBM6; control vs 15Gy): 26.58
- Relative sensitivity (RS) (GBM6; control vs 20Gy): 16.72
- IC50 (GBM6; 10Gy radiated): 532 nM
- IC50 (GBM6; 15Gy radiated): 532 nM
- IC50 (GBM6; 20Gy radiated): 845 nM
- IC50 (GBM6; non-radiated control): 14100 nM
- Relative sensitivity (RS) (GBM12; control vs 15Gy): 11.31 ± 8.282
- IC50 (GBM12; 15Gy radiated): 22.9 ± 7.61 nM
- IC50 (GBM12; non-radiated control): 390 ± 70 nM
- IC50 (dBT120; 15Gy radiated): 458 nM
- IC50 (dBT120; non-radiated control): 5180 nM
- Relative sensitivity (RS) (dBT120; control vs 15Gy): 11.31
- Relative sensitivity (RS) (GBM164; control vs 15Gy): 3.824
- IC50 (GBM164; 15Gy radiated): 77.7 nM
- IC50 (GBM164; non-radiated control): 297 nM
- Relative sensitivity (RS) (GBM10; control vs 15Gy): 16.19
- IC50 (GBM10; 15Gy radiated): 2470 nM
- IC50 (GBM10; non-radiated control): 40000 nM
- IC50 (dBT132; 96 h, non-radiated control, 4 days drug): 18200 nM
- IC50 (dBT132; 10Gy radiated): 4310 nM
- IC50 (dBT132; 20Gy radiated): 2930 nM
- Relative sensitivity (RS) (dBT132; control vs 10Gy): 4.214
- Relative sensitivity (RS) (dBT132; control vs 20Gy): 6.192
- Relative sensitivity (RS) (GBM123; control vs 15Gy): 2.457
- IC50 (GBM123; 15Gy radiated): 9360 nM
- IC50 (GBM123; non-radiated control): 23000 nM
